The values below come from US20230218632A1, “CYCLIC SULFONAMIDE DERIVATIVES AS TRAP1 MODULATORS AND USES THEREOF” (Amathus Therapeutics, Inc., priority 2020, published 2023).

Some results are limits rather than exact numbers.

The test has as its target T1, TRAP1 enzyme (Homo sapiens, UniProt Q12931).
T1 sequence (Q12931 60-704): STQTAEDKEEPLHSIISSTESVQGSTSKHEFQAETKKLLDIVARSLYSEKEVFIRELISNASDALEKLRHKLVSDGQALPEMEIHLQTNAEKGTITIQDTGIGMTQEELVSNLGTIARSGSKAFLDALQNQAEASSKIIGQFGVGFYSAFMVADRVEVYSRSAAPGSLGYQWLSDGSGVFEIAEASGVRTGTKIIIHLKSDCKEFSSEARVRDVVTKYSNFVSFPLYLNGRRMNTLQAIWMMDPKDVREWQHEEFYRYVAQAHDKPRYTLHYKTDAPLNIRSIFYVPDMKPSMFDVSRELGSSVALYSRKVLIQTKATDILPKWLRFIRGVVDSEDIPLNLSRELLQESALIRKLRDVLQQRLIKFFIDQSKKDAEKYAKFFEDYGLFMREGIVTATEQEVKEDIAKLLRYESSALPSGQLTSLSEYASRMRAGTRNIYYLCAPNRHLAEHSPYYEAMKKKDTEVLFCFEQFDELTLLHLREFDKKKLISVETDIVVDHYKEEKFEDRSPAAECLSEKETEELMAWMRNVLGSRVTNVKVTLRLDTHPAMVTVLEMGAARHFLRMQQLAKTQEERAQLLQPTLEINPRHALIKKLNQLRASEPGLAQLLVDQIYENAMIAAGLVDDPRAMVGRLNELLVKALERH
In words: ADP Glo assay (ATPase activity of TRAP1). Type of test: biochemical. The following applies: for EC50: 150 nM Trap1, 20 µM ATP, concentration for half maximal activation, read-out: ADP GLO DRC: GeoMean EC50; for Emax: maximal percent activation, read-out: ADP GLO DRC: Mean Emax. On the procedure:
Potency of test compounds to modulate the ATPase activity of TRAP1 enzyme was evaluated using ADP Glo assay. The assay is based on quantification of the ADP generated from ATP in the ATPase reaction. The assay is performed in two steps; first, after the ATPase reaction, an equal volume of ADP-Glo™ Reagent is added to terminate the ATPase reaction and deplete the remaining ATP. Second, the Kinase Detection Reagent is added to simultaneously convert ADP to ATP and allow the newly synthesized ATP to be measured using a luciferase/luciferin reaction.
All the assays were carried out in a 384-well Proxiplate. The buffer used was 25 mM Pipes pH-7.5, 40 mM KCl, 0.05 mM MgCl2, 0.025 % BSA, 0.316 mM EGTA, 0.003% Empigen, 0.01% Igepal. 150 nM Trap1 enzyme was incubated with various concentrations of the test compound (0.79 µM - 100 µM) at 37° C. for 30 mins (except in blank wells). 20 µM ATP was added to each well to start the reaction. The plate was spun for 1 min at 1200 rpm and then incubated at 37° C. for 60 mins. 5 µl of ADP Glo reagent was added to all the wells and spun the plate for 1 min at 1200 rpm and kept it on a shaker at ambient temperature for 60 mins. 10 µl of kinase detection mix was added to all the wells and the plate was read for Luminescence at 495 nm. The amount of ADP released was estimated from ATP/ADP standard curve generated at the same experimental conditions. Emax (Maximal percent activation) and EC50 (concentration for half maximal activation ) were estimated by fitting the dose response data to a sigmoidal curve fitting equation using Graphpad Prism software V. 8.
A general note: In ADP-Glo the light output rises with the ADP produced.

As for `O=C(Nc1ccc2c(c1)S(=O)(=O)N(c1ccc(C(F)(F)F)cc1)CCO2)c1cccc(CO)n1` [Compound 2291], the EC50 was less than 20 µM and the Emax lay within 150 to 200%.
On the same counts, the results for `O=C(Nc1ccc2c(c1)S(=O)(=O)N(c1ccc(C(F)(F)F)cc1)CCO2)c1cc(=O)cc[nH]1` [Compound 2473] are 30 to 100 µM and greater than 200%.
Take `O=C(Nc1ccc2c(c1)S(=O)(=O)N(c1ccc(C(F)(F)F)cc1)CCO2)c1cnco1` [Compound 1994, n-(1,1-Dioxido-2-(4-(Trifluoromethyl) Phenyl)-3,4-Dihydro-2H-Benzo[b][1,4,5]Oxathiazepin-8-yl)Oxazole-5-Carboxamide]: the EC50 was 30 to 100 µM and the Emax is greater than 200%.
`Cc1ncn(C)c1C(=O)Nc1ccc2c(c1)S(=O)(=O)N(c1ccc(C(F)(F)F)cc1)CCO2` [Compound 2343]: the EC50 was in the range of 30 to 100 µM and the Emax is 150 to 200%.
For the molecule `CCc1nn(C)cc1C(=O)Nc1ccc2c(c1)S(=O)(=O)N(c1ccc(C(F)(F)F)cc1)CCO2` [Compound 2265], the EC50 is less than 20 µM and the maximum response (Emax) lay in the range of 150 to 200%.
Regarding `COc1ccncc1C(=O)Nc1ccc2c(c1)S(=O)(=O)N(c1ccc(C(F)(F)F)cc1)CCO2` [Compound 2323], the EC50 fell in the range of 20 to 30 µM and the Emax lay in the range of 150 to 200%.
On the same counts, the results for `Cc1cc(C(=O)Nc2ccc3c(c2)S(=O)(=O)N(c2ccc(C(F)(F)F)cc2)CCO3)cc(C)n1` [Compound 2510] are 30 to 100 µM and 150 to 200%.
For the molecule `Cc1ncc(C(=O)Nc2ccc3c(c2)S(=O)(=O)N(c2ccc(C(F)(F)F)cc2)CCO3)cn1` [Compound 2200], the EC50 was in the range of 30 to 100 µM and the Emax was 150 to 200%.
As to `Cn1ccnc1C(=O)Nc1ccc2c(c1)S(=O)(=O)N(c1ccc(C(F)(F)F)cc1)CCO2` [Compound 2090, N-(1,1-Dioxido-2-(4-(Trifluoromethyl)Phenyl)-3,4-Dihydro-2H-Benzo[b][1,4,5]Oxathiazepin-8-yl)-1-Methyl-1H-Imidazole-2-Carboxamide], the EC50 is less than 20 µM and the Emax was 129 to 149%.
Take `Cc1nc(C)c(C(=O)Nc2ccc3c(c2)S(=O)(=O)N(c2ccc(C(F)(F)F)cc2)CCO3)o1` [Compound 1974, N-(1,1-Dioxido-2-(4-(Trifluoromethyl)Phenyl)-3,4-Dihydro-2H-Benzo[b][1,4,5]Oxathiazepin-8-yl)-2,4-Dimethyloxazole-5-Carboxamide]: the EC50 fell in the range of 20 to 30 µM and the Emax was 150 to 200%.
The like results for `O=C(Nc1ccc2c(c1)S(=O)(=O)N(c1ccc(C(F)(F)F)cc1)CCO2)c1ccc(CO)cn1` [Compound 2296] were, in that order, less than 20 µM and 150 to 200%.
`Cc1ncncc1C(=O)Nc1ccc2c(c1)S(=O)(=O)N(c1ccc(C(F)(F)F)cc1)CCO2` [Compound 2206]: the EC50 lay in the range of 30 to 100 µM and the Emax lay within 150 to 200%.
As for `O=C(Nc1ccc2c(c1)S(=O)(=O)N(c1ccc(C(F)(F)F)cc1)CCO2)c1cocn1` [Compound 1976, N-(1,1-Dioxido-2-(4-(Trifluoromethyl)Phenyl)-3,4-Dihydro-2H-Benzo[b][1,4,5]Oxathiazepin-8-yl)Oxazole-4-Carboxamide], the EC50 lay in the range of 30 to 100 µM and the Emax was 150 to 200%.
Turning to `Cc1ccc(C(=O)Nc2ccc3c(c2)S(=O)(=O)N(c2ccc(C(F)(F)F)cc2)CCO3)cn1` [Compound 2174], the EC50 lay in the range of 20 to 30 µM and the Emax lay within 129 to 149%.
Turning to `CC(C)n1cc(C(=O)Nc2ccc3c(c2)S(=O)(=O)N(c2ccc(C(F)(F)F)cc2)CCO3)cn1` [Compound 2192], the EC50 was in the range of 20 to 30 µM and the Emax lay in the range of 129 to 149%.
As to `Cc1cc(C(=O)Nc2ccc3c(c2)S(=O)(=O)N(c2ccc(C(F)(F)F)cc2)CCO3)n(C)n1` [Compound 2339], the EC50 is less than 20 µM and the Emax lay within 129 to 149%.
Regarding `O=C(Nc1ccc2c(c1)S(=O)(=O)N(c1ccc(C(F)(F)F)cc1)CCO2)c1cnn2c1CCC2` [Compound 2179], the EC50 is 20 to 30 µM and the Emax fell in the range of 150 to 200%.
`Cc1nc(C(=O)Nc2ccc3c(c2)S(=O)(=O)N(c2ccc(C(F)(F)F)cc2)CCO3)co1` [Compound 1992, N-(1,1-Dioxido-2-(4-(trifluoromethyl)Phenyl)-3,4-Dihydro-2H-Benzo[b][1,4,5]Oxathiazepin-8-yl)-2-Methyloxazole-4-Carboxamide]: the EC50 fell in the range of 20 to 30 µM and the Emax was in the range of 150 to 200%.
Regarding `COc1cc(N2CCOc3ccc(NC(=O)c4ncoc4C)cc3S2(=O)=O)ccc1C(F)(F)F` [Compound 2398], the EC50 was less than 20 µM and the Emax lay within 129 to 149%.
On to `Cc1cc(C(=O)Nc2cnc3c(c2)S(=O)(=O)N(c2ccc(C(F)(F)F)cc2)CCO3)n(C)n1` [Compound 2495], for which the EC50 lay in the range of 20 to 30 µM and the Emax is greater than 200%.
With `Cc1cnncc1C(=O)Nc1ccc2c(c1)S(=O)(=O)N(c1ccc(C(F)(F)F)cc1)CCO2` [Compound 2275], the EC50 lay in the range of 30 to 100 µM and the Emax fell in the range of 150 to 200%.
For the molecule `Cn1ccc(C(=O)Nc2ccc3c(c2)S(=O)(=O)N(c2ccc(C(F)(F)F)cc2)CCO3)n1` [Compound 2294], the EC50 is less than 20 µM and the Emax fell in the range of 150 to 200%.
Take `Cc1cnccc1C(=O)Nc1ccc2c(c1)S(=O)(=O)N(c1ccc(C(F)(F)F)cc1)CCO2` [Compound 2199]: the EC50 lay within 20 to 30 µM and the Emax fell in the range of 150 to 200%.
With `Cc1ncnc(C)c1C(=O)Nc1ccc2c(c1)S(=O)(=O)N(c1ccc(C(F)(F)F)cc1)CCO2` [Compound 2337], the EC50 fell in the range of 30 to 100 µM and the Emax was 150 to 200%.
Take `COCc1oncc1C(=O)Nc1ccc2c(c1)S(=O)(=O)N(c1ccc(C(F)(F)F)cc1)CCO2` [Compound 2257]: the EC50 fell in the range of 30 to 100 µM and the Emax was 150 to 200%.
`CC(C)c1ncsc1C(=O)Nc1ccc2c(c1)S(=O)(=O)N(c1ccc(C(F)(F)F)cc1)CCO2` [Compound 2080, N-(1,1-Dioxido-2-(4-(Trifluoromethyl)Phenyl)-3,4-Dihydro-2H-Benzo[b][1,4,5]Oxathiazepin-8-yl)-4-Isopropylthiazole-5-Carboxamide]: the EC50 lay in the range of 20 to 30 µM and the Emax was in the range of 129 to 149%.
Turning to `CCn1nccc1C(=O)Nc1ccc2c(c1)S(=O)(=O)N(c1ccc(C(F)(F)F)cc1)CCO2` [Compound 2254], the EC50 was less than 20 µM and the Emax lay within 129 to 149%.
`Cc1ncccc1C(=O)Nc1ccc2c(c1)S(=O)(=O)N(c1ccc(C(F)(F)F)cc1)CCO2` [Compound 2286]: the EC50 was in the range of 30 to 100 µM and the Emax is greater than 200%.
For `Cn1cc(C(=O)Nc2ccc3c(c2)S(=O)(=O)N(c2ccc(C(F)(F)F)cc2)CCO3)cn1` [Compound 2241], the EC50 lay within 20 to 30 µM and the Emax lay in the range of 150 to 200%.
For the molecule `O=C(Nc1ccc2c(c1)S(=O)(=O)N(c1ccc(C(F)(F)F)cc1)CCO2)c1cc[nH]c(=O)c1` [Compound 2187], the EC50 fell in the range of 30 to 100 µM and the Emax was greater than 200%.
On to `O=C(Nc1ccc2c(c1)S(=O)(=O)N(c1ccc(C(F)(F)F)cc1)CCO2)c1cncs1` [Compound 2180], for which the EC50 lay in the range of 20 to 30 µM and the Emax lay within 150 to 200%.
On the same counts, the results for `NCc1cccc(C(=O)Nc2ccc3c(c2)S(=O)(=O)N(c2ccc(C(F)(F)F)cc2)CCO3)n1` [Compound 2513] are 30 to 100 µM and greater than 200%.
Take `Cc1ocnc1C(=O)Nc1ccc2c(c1)S(=O)(=O)N(c1ccc(C(F)(F)F)cc1)CCO2` [Compound 1975, N-(1,1-Dioxido-2-(4-(Trifluoromethyl)Phenyl)-3,4-Dihydro-2H-Benzo[b][1,4,5]Oxathiazepin-8-yl)-5-Methyloxazole-4-Carboxamide]: the EC50 is less than 20 µM and the Emax was 129 to 149%.
On the same counts, the results for `COc1nccnc1C(=O)Nc1ccc2c(c1)S(=O)(=O)N(c1ccc(C(F)(F)F)cc1)CCO2` [Compound 2230] are 20 to 30 µM and 150 to 200%.
On to `CC(C)n1cncc1C(=O)Nc1ccc2c(c1)S(=O)(=O)N(c1ccc(C(F)(F)F)cc1)CCO2` [Compound 2439], for which the EC50 lay in the range of 20 to 30 µM and the Emax fell in the range of 150 to 200%.

Usually EC50 stands for the midpoint of the concentration-response curve. For orientation: Emax means the maximal effect, on the per cent scale that the assay sets.
